Experimental data taken from BigSolDB 2.1.

CC1(C)COP(=O)(C(C)(C)O)OC1
Conditions	solubility (mole fraction)
in 1,2-dichloroethane, 283.65 K	0.00134
in 1,2-dichloroethane, 288.55 K	0.00156
in 1,2-dichloroethane, 293.65 K	0.00196
in 1,2-dichloroethane, 298.25 K	0.00249
in 1,2-dichloroethane, 303.15 K	0.00308
in 1,2-dichloroethane, 308.05 K	0.00418
in 1,2-dichloroethane, 313 K	0.00519
in 1,2-dichloroethane, 317.8 K	0.00654
in 1,2-dichloroethane, 322.7 K	0.00788
in acetone, 278.15 K	0.0024
in acetone, 283.65 K	0.00286
in acetone, 288.25 K	0.00329
in acetone, 293.75 K	0.00415
in acetone, 298.65 K	0.00505
in acetone, 303.15 K	0.00596
in acetone, 308.05 K	0.007
in acetone, 312.95 K	0.00821
in acetone, 317.75 K	0.00998
in acetone, 322.55 K	0.0118
in acetonitrile, 278.65 K	0.00174
in acetonitrile, 283.65 K	0.00222
in acetonitrile, 288.85 K	0.00295
in acetonitrile, 293.75 K	0.00357
in acetonitrile, 298.25 K	0.00413
in acetonitrile, 303.2 K	0.00513
in acetonitrile, 308.15 K	0.00629
in acetonitrile, 312.9 K	0.00754
in acetonitrile, 318.3 K	0.00901
in acetonitrile, 322.8 K	0.0111
in acetonitrile, 328 K	0.0135
in acetonitrile, 332.65 K	0.0165
in chloroform, 278.9 K	0.0132
in chloroform, 283.85 K	0.0139
in chloroform, 288.55 K	0.0147
in chloroform, 293.85 K	0.0174
in chloroform, 298.3 K	0.0212
in chloroform, 303.25 K	0.0244
in chloroform, 308.05 K	0.0302
in chloroform, 313.15 K	0.0364
in chloroform, 317.75 K	0.0421
in chloroform, 322.75 K	0.0508
in ethanol, 278.85 K	0.0199
in ethanol, 283.75 K	0.023
in ethanol, 288.55 K	0.0265
in ethanol, 293.65 K	0.0315
in ethanol, 298.35 K	0.0349
in ethanol, 303.55 K	0.0403
in ethanol, 308.55 K	0.046
in ethanol, 313.25 K	0.0528
in ethanol, 318.05 K	0.0592
in ethanol, 323.15 K	0.065
in ethyl acetate, 293.75 K	0.00129
in ethyl acetate, 298.35 K	0.00141
in ethyl acetate, 303.35 K	0.00187
in ethyl acetate, 308.15 K	0.00231
in ethyl acetate, 313.35 K	0.0028
in ethyl acetate, 318 K	0.00372
in ethyl acetate, 322.75 K	0.00445
in ethyl acetate, 328.25 K	0.00563
in ethyl acetate, 333.55 K	0.00714
in ethyl acetate, 337.65 K	0.00819
in ethyl acetate, 342.85 K	0.0102
in methanol, 279.05 K	0.0374
in methanol, 283.75 K	0.0416
in methanol, 288.25 K	0.0472
in methanol, 293.75 K	0.0527
in methanol, 298.65 K	0.0577
in methanol, 303.25 K	0.0653
in methanol, 308.45 K	0.0725
in methanol, 312.95 K	0.0792
in methanol, 317.75 K	0.0862
in methanol, 322.65 K	0.0968
in water, 283.55 K	0.00713
in water, 288.85 K	0.00723
in water, 294.7 K	0.007
in water, 298.25 K	0.00711
in water, 303.3 K	0.00736
in water, 308.25 K	0.00757
in water, 313.35 K	0.00805
in water, 318.3 K	0.00861
in water, 323.15 K	0.00911
in water, 328.05 K	0.0102
in water, 332.9 K	0.0112
in water, 338.15 K	0.0128
in water, 343.15 K	0.0142
